Measurements reported in patent US7022736B2, “Enzyme inhibitors” (Istituto Di Ricerche Di Biologia Molecolare P Angeletti SpA, priority 1998, dated 2006).

Molecular target: T1, HCV RdRp (NS5B RNA-dependent RNA polymerase) (Hepatitis C virus genotype 1b, UniProt P26663)
T1 construct: The HCV NS5B protein is the viral RdRp; made in house; host or cells: insect cells infected with recombinant baculovirus
Assay: Inhibition of hepatitis C virus RdRp (poly(A)/oligo(U), [3H]UTP incorporation)
Format: biochemical
Conditions: Tables I-VIII; 20 nM NS5B, 1 hour at 22° C.; read-out: IC 50 (μM), HCV-polymerase
Description: In initial tests, the compounds were tested to see if they were effective as inhibitors of the RNA-dependent RNA polymerase (RdRp) of hepatitis C virus (HCV). The HCV NS5B protein is the viral RdRp; compounds capable of interfering with the activity of this enzyme are thus expected to block viral replication.
Test for Inhibition of Hepatatis C Virus RdRp
WO96/37619 describes the production of recombinant HCV RdRp from insect cells infected with recombinant baculovirus encoding the enzyme. […] The reference describes a polymerisation assay using poly (A) as a template and oligo (U) as a primer. Incorporation of tritiated UTP is quantified by measuring acid-insoluble radioactivity. The present inventors have employed this assay to screen the various compounds described above as inhibitors of HCV RdRp and other virally encoded polymerases.
Incorporation of radioactive UMP was measured as follows. The standard reaction (100 μl) was carried out in a buffer containing 20 mM tris/HCl pH 7.5, 5 mM MgCl2, 1 mM DTT, 50 mM NaCl, 1 mM EDTA, 2 OU Rnasin (Promega), 0.05% Triton X-100, 1 μCi[^3H] UTP (40 Ci/mmol,NEN), 10 μM UTP and 10 μg/ml poly (A). Oligo (U)12 (1 μg/ml, Genset) was added as a primer. The final NSSB enzyme concentration was 20 nM. After 1 hour incubation at 22° C. the reaction was stopped by adding 100 μl of 20% TCA and applying samples to DE81 filters. The filters were washed thoroughly with 5% TCA containing 1M Na2HPO4/NaH2PO4, pH 7.0, rinsed with water and then ethanol, air dried, and the filter-bound radioactivity was measured in the scintillation counter. By carrying out the reaction in the presence of various concentrations of each of the compounds set out above it was possible to determine IC50 values for each compound with the formula: % residual activity=100/(1+[I]/IC50)^s where [I] is the inhibitor concentration and “s” is the slope of the inhibition curve. Test for Inhibition of Hepatitis B Virus Polymerase

T1 sequence (P26663 2420-3010): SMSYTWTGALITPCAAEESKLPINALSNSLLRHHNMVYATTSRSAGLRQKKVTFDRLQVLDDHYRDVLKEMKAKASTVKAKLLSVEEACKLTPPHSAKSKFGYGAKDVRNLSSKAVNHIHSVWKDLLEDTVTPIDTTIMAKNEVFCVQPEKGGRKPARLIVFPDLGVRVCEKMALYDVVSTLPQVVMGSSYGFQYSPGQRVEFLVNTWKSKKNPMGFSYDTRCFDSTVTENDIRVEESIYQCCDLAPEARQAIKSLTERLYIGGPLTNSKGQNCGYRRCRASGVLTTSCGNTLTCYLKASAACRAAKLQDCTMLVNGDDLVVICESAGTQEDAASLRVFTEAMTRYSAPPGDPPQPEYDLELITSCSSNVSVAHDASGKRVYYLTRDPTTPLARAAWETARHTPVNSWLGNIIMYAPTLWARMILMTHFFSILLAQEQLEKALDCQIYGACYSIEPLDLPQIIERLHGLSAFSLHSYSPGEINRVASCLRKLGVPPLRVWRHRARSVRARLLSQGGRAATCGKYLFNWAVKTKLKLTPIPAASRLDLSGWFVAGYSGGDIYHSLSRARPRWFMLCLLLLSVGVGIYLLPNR

SMILES	IC50 [µM]
O=C(O)C(O)=CC(=O)c1cccc(NS(=O)(=O)c2cccs2)c1 [Example 101]	7
O=C(O)C(O)=CC(=O)c1cccc(NS(=O)(=O)c2ccc(Cl)s2)c1 [Example 102]	1.5
O=C(O)C(O)=CC(=O)c1cccc(OCc2cc(-c3ccccc3)on2)c1 [Example 103]	6
O=C(O)C(O)=CC(=O)c1cccc(OCc2cccc(Oc3ccccc3)c2)c1 [Example 104]	50
O=C(O)C(O)=CC(=O)c1cccc(OCc2cccc[n+]2[O-])c1 [Example 105]	13.7
Cc1cc(COc2cccc(C(=O)C=C(O)C(=O)O)c2)no1 [Example 106]	6.8
O=C(O)C(O)=CC(=O)c1cccc(NS(=O)(=O)Cc2ccccc2)c1 [Example 108]	6.9
N#Cc1c(Cl)cccc1COc1cccc(C(=O)C=C(O)C(=O)O)c1 [Example 109]	0.17
O=C(O)C(O)=CC(=O)c1cccc(COc2ccccc2)c1 [Example 110]	30
O=C(O)C(O)=CC(=O)c1cccc(NS(=O)(=O)c2ccc3ccccc3c2)c1 [Example 114]	0.5
O=C(O)C(O)=CC(=O)c1cccc(NS(=O)(=O)c2ccc(C(F)(F)F)cc2Cl)c1 [Example 115]	3.7
N#Cc1ccc(-c2ccccc2)cc1COc1cccc(C(=O)C=C(O)C(=O)O)c1 [Example 116]	0.3
O=C(O)C(O)=CC(=O)c1cccc(NS(=O)(=O)c2cccc(Cl)c2Cl)c1 [Example 118]	0.2
O=C(O)C(O)=CC(=O)c1cccc(NS(=O)(=O)c2cc(Cl)c(Cl)cc2Cl)c1 [Example 119]	0.049
O=C(NCCc1ccccc1)Nc1cccc(C(=O)C=C(O)C(=O)O)c1 [Example 121]	4
Cc1cccc(C(C)Oc2cccc(C(=O)C=C(O)C(=O)O)c2)c1C#N (stereo not drawn) [Example 122]	2
Cc1c(Cl)cccc1S(=O)(=O)Nc1cccc(C(=O)C=C(O)C(=O)O)c1 [Example 123]	0.29
O=C(O)C(O)=CC(=O)c1cccc(NS(=O)(=O)c2ccc(-c3ccccc3)cc2)c1 [Example 124]	28
O=C(O)C(O)=CC(=O)c1cccc(NS(=O)(=O)c2ccc(Cl)c(Cl)c2Cl)c1 [Example 125]	0.17
O=C(O)C(O)=CC(=O)c1cccc(NS(=O)(=O)c2cc(Cl)cc(Cl)c2O)c1 [Example 127]	0.3
CCOC(=O)c1ccccc1S(=O)(=O)Nc1cccc(C(=O)C=C(O)C(=O)O)c1 [Example 128]	24
COc1ccc(Cl)cc1S(=O)(=O)Nc1cccc(C(=O)C=C(O)C(=O)O)c1 [Example 129]	1.6
O=C(O)C(O)=CC(=O)c1cccc(NS(=O)(=O)c2c(Cl)sc(Cl)c2Br)c1 [Example 130]	0.14
O=C(O)C(O)=CC(=O)c1cccc(NS(=O)(=O)c2cccc(Cl)c2)c1 [Example 131]	0.78
O=C(O)C(O)=CC(=O)c1cccc(OCc2cccc3ccccc23)c1 [Example 132]	0.67

SMILES	IC50 [µM]
O=C(O)C(O)=CC(=O)c1cccc(OCc2ccc(Cl)c(Cl)c2)c1 [Example 133]	3.2
O=C(O)C(O)=CC(=O)c1cccc(NS(=O)(=O)CCCCl)c1 [Example 134]	23
O=C(O)C(O)=CC(=O)c1cccc(NS(=O)(=O)c2cc(Cl)c(Oc3ccc([N+](=O)[O-])cc3Cl)c(Cl)c2)c1 [Example 135]	21
O=C(O)C(O)=CC(=O)c1cccc(NS(=O)(=O)c2ccc(Cl)c(Cl)c2)c1 [Example 136]	0.2
Cc1ccc(S(=O)(=O)Nc2cccc(C(=O)C=C(O)C(=O)O)c2)cc1Cl [Example 137]	0.9
O=C(O)C(O)=CC(=O)c1cccc(NS(=O)(=O)c2ccc(F)cc2Cl)c1 [Example 138]	1.1
O=C(O)C(O)=CC(=O)c1cccc(OCc2c(Cl)cccc2Cl)c1 [Example 139]	1.4
O=C(O)C(O)=CC(=O)c1cccc(NS(=O)(=O)c2c(Cl)cc(C(F)(F)F)cc2Cl)c1 [Example 140]	1
O=C(O)C(O)=CC(=O)c1cccc(NS(=O)(=O)c2ccc(Cl)c([N+](=O)[O-])c2)c1 [Example 141]	0.56
O=C(O)C(O)=CC(=O)c1cccc(NS(=O)(=O)c2cccc([N+](=O)[O-])c2)c1 [Example 142]	0.4
O=C(O)C(O)=CC(=O)c1cccc(NS(=O)(=O)c2ccc(F)c(Cl)c2)c1 [Example 143]	0.45
O=C(O)C(O)=CC(=O)c1cccc(S(=O)(=O)Nc2ccccc2)c1 [Example 144]	14
O=C(O)C(O)=CC(=O)c1cccc(S(=O)(=O)Nc2ccc(Cl)cc2)c1 [Example 145]	1.2
Cc1cc(C)c(S(=O)(=O)Nc2cccc(C(=O)C=C(O)C(=O)O)c2)c(C)c1 [Example 146]	15
Cc1cc(S(=O)(=O)Nc2cccc(C(=O)C=C(O)C(=O)O)c2)c(C)cc1Cl [Example 147]	1.3
O=C(O)C(O)=CC(=O)c1cccc(NS(=O)(=O)c2c(Cl)cc(Cl)cc2Cl)c1 [Example 148]	0.26
Cc1cc(S(=O)(=O)Nc2cccc(C(=O)C=C(O)C(=O)O)c2)c(Cl)cc1Cl [Example 149]	0.55
Cc1cc(Cl)cc(Cl)c1S(=O)(=O)Nc1cccc(C(=O)C=C(O)C(=O)O)c1 [Example 150]	2.3
O=C(O)C(O)=CC(=O)c1cccc(NS(=O)(=O)c2ccc(Cl)cc2Cl)c1 [Example 151]	0.5
O=C(O)C(O)=CC(=O)c1cc(Cc2ccccc2)ccc1F [Example 152]	20
O=C(O)C(O)=CC(=O)c1cccc(Cn2nc3ccccc3n2)c1 [Example 153]	19
O=C(O)C(O)=CC(=O)c1cccc(Cn2nnc3ccccc32)c1 [Example 154]	30
N#Cc1ccccc1COc1cc(O)cc(C(=O)C=C(O)C(=O)O)c1 [Example 158]	0.2
N#Cc1cccc(Cl)c1COc1cc(O)cc(C(=O)C=C(O)C(=O)O)c1 [Example 160]	0.1
O=C(O)C(O)=CC(=O)c1ccc(O)cc1 [Example 162]	5.5

SMILES	IC50 [µM]
O=C(O)C(O)=CC(=O)c1ccc(F)cc1 [Example 163]	26
CCc1ccc(C(=O)C=C(O)C(=O)O)cc1 [Example 164]	47
Cc1ccc(C(=O)C=C(O)C(=O)O)c(C)c1 [Example 165]	2
O=C(O)C(O)=CC(=O)c1ccc(Cl)cc1 [Example 166]	20
Cc1ccc(C(=O)C=C(O)C(=O)O)c(OCCCC#N)c1 [Example 167]	0.6
N#CCCCOc1cccc(OCCCC#N)c1C(=O)C=C(O)C(=O)O [Example 171]	12
COc1cccc(OC)c1C(=O)C=C(O)C(=O)O [Example 172]	> 50
N#CCCCn1cccc1C(=O)C=C(O)C(=O)O [Example 173]	21
N#CCCCCn1cccc1C(=O)C=C(O)C(=O)O [Example 174]	13.4
O=C(O)C(O)=CC(=O)c1cccn1CC1CCCC1 [Example 175]	25
O=C(O)C(O)=CC(=O)c1cccn1Cc1ccccc1 [Example 176]	29
O=C(O)C(O)=CC(=O)c1cccn1-c1ccc(F)cc1 [Example 177]	25
O=C(O)C(O)=CC(=O)c1cccn1CC1CCCCC1 [Example 178]	17.9
O=C(O)C(O)=CC(=O)c1cccn1Cc1ccc(O)cc1 [Example 179]	12.8
O=C(O)C(O)=CC(=O)c1cccn1Cc1ccc(F)cc1 [Example 180]	93
O=C(O)C(O)=CC(=O)c1cccn1Cc1cccc(F)c1 [Example 181]	30
O=C(O)C(O)=CC(=O)c1cccn1Cc1ccccc1F [Example 182]	30
N#Cc1ccc(Cn2cccc2C(=O)C=C(O)C(=O)O)cc1 [Example 183]	32
N#Cc1ccccc1Cn1cccc1C(=O)C=C(O)C(=O)O [Example 184]	6.7
O=C(O)C(O)=CC(=O)c1cccn1Cc1ccccc1Cl [Example 186]	24
O=C(O)C(O)=CC(=O)c1cccn1CCCc1ccc(F)cc1 [Example 187]	36
O=C(O)C(O)=CC(=O)c1cccn1Cc1ccc2ccccc2c1 [Example 188]	12.7
O=C(O)C(O)=CC(=O)c1cccn1CCCCOc1ccccc1 [Example 189]	28
O=C(O)C(O)=CC(=O)c1cc(I)cn1Cc1ccc(F)cc1 [Example 190]	18
Cc1ccsc1C(=O)C=C(O)C(=O)O [Example 191]	10

Same assay, conditions: Tables IXa-IXc; unit inferred; read-out: HCV (IC50)

SMILES	IC50 [µM]
O=C(O)C(O)=CC(=O)c1cccc(OCc2cc(-c3ccccc3)on2)c1 [Example 103]	6
N#Cc1c(Cl)cccc1COc1cccc(C(=O)C=C(O)C(=O)O)c1 [Example 109]	0.17
N#Cc1ccc(-c2ccccc2)cc1COc1cccc(C(=O)C=C(O)C(=O)O)c1 [Example 116]	0.3
N#Cc1ccccc1COc1cc(O)cc(C(=O)C=C(O)C(=O)O)c1 [Example 158]	0.2
N#Cc1cccc(Cl)c1COc1cc(O)cc(C(=O)C=C(O)C(=O)O)c1 [Example 160]	0.1
O=C(O)C(O)=CC(=O)c1ccc(O)cc1 [Example 162]	5.5
Cc1ccc(C(=O)C=C(O)C(=O)O)c(C)c1 [Example 165]	2
O=C(O)C(O)=CC(=O)c1cccn1Cc1ccc(O)cc1 [Example 179]	12.8
O=C(O)C(O)=CC(=O)c1cc(I)cn1Cc1ccc(F)cc1 [Example 190]	18
